Source: US11466044B2 (WAYNE STATE UNIVERSITY, priority 2017, dated 2022)
In brackets after ≈: the same amount, converted by molar mass.

How the values were obtained:
E coli wild type = assay: MIC by broth microdilution, wild type E coli; format: cell-based; conditions: for MIC50 E coli BM13 (AG06) wt: Table 2A (Example 2); for MIC50 E coli pH430 WT: Table 2B (Example 2); for MIC50 E coli AG01: strain AG01; for MIC50 E coli AG01 / MIC50 E coli AG03 / MIC50 E coli AG55: Table 1 (Example 2); for MIC50 E coli AG03: strain AG03; for MIC50 E coli AG55: strain AG55; for MIC AG212 E. coli: strain AG212 E. coli (ATCC25922)
MRSA = assay: MIC by broth microdilution, MRSA isolates; format: cell-based; conditions: Table 1 (Example 2); for MIC50 MRSA AG38: strain AG38; for MIC50 MRSA AG39: strain AG39; for MIC50 MRSA AG42: strain AG42; for MIC50 MRSA AG44: strain AG44
[1] = system: Enterobacter cloacae AG290; assay: MIC by broth microdilution, Enterobacter cloacae; format: cell-based; conditions: strain AG290 Enterobacter cloacae
N. gonorrhoeae = assay: Disk diffusion, N. gonorrhoeae; format: cell-based; conditions: 25 nmol
[2] = system: Klebsiella pneumonia AG215; assay: MIC by broth microdilution, Klebsiella pneumonia; format: cell-based; conditions: strain AG215 Klebsiella pneumonia
[3] = system: Acinetobacter baumannii pittii AG225; assay: MIC by broth microdilution, Acinetobacter baumannii; format: cell-based; conditions: strain AG225 Acinetobacter baumannii pittii
[4] = system: E coli carrying specific resistance determinants; assay: MIC by broth microdilution, E coli carrying specific resistance determinants; format: cell-based
M. smegmatis SZ380 = assay: MIC by broth microdilution, M. smegmatis; conditions: strain SZ380 Mycobacterium smegmatis
P aeruginosa = assay: MIC by broth microdilution, P aeruginosa isolates; format: cell-based, Pseudomonas aeruginosa; conditions: for MIC AG220 P. aerugin: strain AG220 Pseudomonas aeruginosa ATCC27853

Structure (SMILES)	MIC50 E coli BM13 (AG06) wt (E coli wild type) [µg/mL]	MIC50 E coli pH430 WT (E coli wild type)	MIC50 E coli AG01 (E coli wild type) [µg/mL]	MIC50 E coli AG03 (E coli wild type) [µg/mL]	MIC50 E coli AG55 (E coli wild type) [µg/mL]	MIC AG212 E. coli (E coli wild type) [µg/mL]	MIC50 MRSA AG38 (MRSA) [µg/mL]	MIC50 MRSA AG39 (MRSA) [µg/mL]	MIC50 MRSA AG42 (MRSA) [µg/mL]	MIC50 MRSA AG44 (MRSA) [µg/mL]	MIC AG290 E. cloacae [1] [µg/mL]	Disk diffusion 25 nmol N. gonorrhoeae (N. gonorrhoeae) [mm]	MIC AG215 K. pneumon [2] [µg/mL]	MIC AG225 A. baumannii [3] [µg/mL]	MIC50 E coli AG036 ANT(4′,4″) ([4]; Table 2B (Example 2)) [µg/mL]	MIC50 E coli AG037 APH(3′)-III ([4]; Table 2B (Example 2)) [µg/mL]	MIC50 E coli AG103 armA ([4]; Table 2B (Example 2)) [µg/mL]	MIC50 E coli pH414 AAC(6′)-I ([4]; Table 2B (Example 2)) [μg/ml]	MIC50 E coli pH415 AAC(6′)-II ([4]; Table 2B (Example 2))	MIC50 E coli pH421 APH(3′)-I ([4]; Table 2B (Example 2)) [μg/ml]	other results
CC(N)C1OC(OC2C(N)CC(N)C(O)C2OC2OC(CO)C(OC3OC(CN)C(O)C(O)C3N)C2O)C(N)C(O)C1O (stereo not drawn) [Compound 166]	0.5 to 1	0.5 μg/ml	2 (≈ 3.18 µM)	2 (≈ 3.18 µM)	2 (≈ 3.18 µM)	1 (≈ 1.59 µM)	2 (≈ 3.18 µM)	>128	>128	1 (≈ 1.59 µM)	0.5 (≈ 0.795 µM)	12	0.25 to 0.5	1 (≈ 1.59 µM)	16 (≈ 25.5 µM)	>64	1 (≈ 1.59 µM)	0.5	1-2 μg/ml	>32	MIC50 E coli AG09 AAC(6′) ([4]; AG09 AAC(6′), Table 2A (Example 2)): 0.5 µg/mL (≈ 0.795 µM); MIC50 E coli AG036 ANT(4′,4″) ([4]; Table 2A (Example 2)): 16 µg/mL (≈ 25.5 µM); MIC50 E coli AG037 APH(3′,5″) ([4]; AG037 APH(3′,5″), Table 2A (Example 2)): >64 µg/mL; MIC50 E coli pH422 APH(3′)-II ([4]; Table 2B (Example 2)): >32 μg/ml; MIC50 E coli pH423 APH(3)-VI ([4]; Table 2B (Example 2)): >32 μg/ml; MIC50 E coli pH432 ANT(4′) ([4]; Table 2B (Example 2)): 0.5 μg/ml; MIC SZ380 M. smegmatis (M. smegmatis SZ380): 0.125 to 0.25 µg/mL; MIC50 P aeruginosa AG31 (P aeruginosa; strain AG31, Table 1 (Example 2)): ≥128 µg/mL; MIC50 P aeruginosa AG32 (P aeruginosa; strain AG32, Table 1 (Example 2)): 128 µg/mL (≈ 204 µM); MIC50 P aeruginosa AG33 (P aeruginosa; strain AG33, Table 1 (Example 2)): ≥128 µg/mL; MIC50 P aeruginosa AG86 (P aeruginosa; strain AG86, Table 1 (Example 2)): 16 µg/mL (≈ 25.5 µM); MIC AG220 P. aerugin (P aeruginosa): >32 µg/mL
C[C@@H](O)[C@H]1O[C@H](O[C@H]2[C@H](O[C@@H]3O[C@H](CO)[C@@H](O[C@H]4O[C@@H](CN)[C@@H](O)[C@H](O)[C@H]4N)[C@H]3O)[C@@H](O)[C@H](N)C[C@@H]2N)[C@H](N)[C@@H](O)[C@@H]1O [Compound 155, 6′(R)-6′-C-Methylparomomycin]	2 (≈ 3.18 µM)	1-2 μg/ml	8 to 16	8 to 16	8 to 16	4 (≈ 6.35 µM)	8 (≈ 12.7 µM)	>64	>64	4 (≈ 6.35 µM)	2 to 4	8	2 (≈ 3.18 µM)	4 (≈ 6.35 µM)	>32	>32	8 (≈ 12.7 µM)	2	2 μg/ml	>32	MIC50 E coli pH422 APH(3′)-II ([4]; Table 2B (Example 2)): >32 μg/ml; MIC50 E coli pH423 APH(3)-VI ([4]; Table 2B (Example 2)): >32 μg/ml; MIC50 E coli pH432 ANT(4′) ([4]; Table 2B (Example 2)): 2 μg/ml; MIC SZ380 M. smegmatis (M. smegmatis SZ380): 4 µg/mL (≈ 6.35 µM); MIC AG220 P. aerugin (P aeruginosa): >32 µg/mL
